ChEMBL document CHEMBL3244320, “2-Acetylpyridine thiosemicarbazones. 1. A new class of potential antimalarial agents” (J Med Chem, 1979)

What was measured:
Format in all cases: functional
Details in all cases: route subcutaneous
[1] = test system: Plasmodium berghei; assay: Antimalarial activity against Plasmodium berghei KBG 173 infected in ICR/HA Swiss mouse assessed as increase in mean survival time at 40 mg/kg, sc administered 72 hrs post infection
[2] = test system: Plasmodium berghei; assay: Antimalarial activity against Plasmodium berghei KBG 173 infected in ICR/HA Swiss mouse assessed as increase in mean survival time at 160 mg/kg, sc administered 72 hrs post infection
[3] = test system: Plasmodium berghei; assay: Antimalarial activity against Plasmodium berghei KBG 173 infected in ICR/HA Swiss mouse assessed as increase in mean survival time at 640 mg/kg, sc administered 72 hrs post infection
[4] = test system: Plasmodium berghei; assay: Antimalarial activity against Plasmodium berghei KBG 173 infected in ICR/HA Swiss mouse assessed as increase in mean survival time at 80 mg/kg, sc administered 72 hrs post infection
[5] = test system: Plasmodium berghei; assay: Antimalarial activity against Plasmodium berghei KBG 173 infected in ICR/HA Swiss mouse assessed as increase in mean survival time at 320 mg/kg, sc administered 72 hrs post infection

Row | Structure (SMILES) | MST [1] [days] | MST [2] [days] | MST [3] [days] | MST [4] [days] | MST [5] [days]
1 | CCCCc1ccc(NC(=S)N/N=C(\C)c2ccccn2)cc1 | 0.3 | 3.9 | 9.9 | – | –
2 | C/C(=N\NC(=S)NCc1ccccn1)c1ccccn1 | 0.1 | 0.3 | 0.9 | – | –
3 | CCc1ccc(NC(=S)N/N=C(\C)c2ccccn2)cc1 | 0.3 | 2.1 | 5.7 | 1.5 | 3.1
4 | C/C(=N\NC(=S)Nc1ccccc1C)c1ccccn1 | 0.1 | 0.9 | 9.9 | 0.5 | 5.1
5 | C/C(=N\NC(=S)NC(C)(C)CC(C)(C)C)c1ccccn1 | 1.1 | 0.9 | 8.7 | 1.3 | 2.9
6 | C/C(=N\NC(=S)Nc1ccc(Cl)cc1)c1ccccn1 | 0.5 | 1.7 | 8.3 | 1.5 | 4.3
7 | C/C(=N\NC(=S)NCc1ccc(C)cc1)c1ccccn1 | 0.1 | 4.3 | – | 1.7 | 5.7
8 | C/C(=N\NC(=S)N1CC1)c1ccccn1 | 0.1 | 0.1 | 0.1 | – | –
9 | COc1ccc(CNC(=S)N/N=C(\C)c2ccccn2)cc1 | 0.3 | 2.9 | 7.9 | 1.7 | 5.9
10 | C/C(=N\NC(=S)NCc1ccncc1)c1ccccn1 | 0.3 | 0.4 | 0 | – | –
11 | CC/C(=N\NC(=S)NC12CC3CC(CC(C3)C1)C2)c1ccccn1 | – | 3.7 | 9.1 | 0.3 | 6.3
12 | CCc1ccccc1NC(=S)N/N=C(\C)c1ccccn1 | 0.3 | 0.7 | 5.1 | 0.3 | 3.1
13 | C/C(=N\NC(=S)NCc1ccc(C)cc1C)c1ccccn1 | 0.5 | 3.1 | 8.9 | 0.1 | 6.1
14 | C/C(=N\NC(=S)NCc1ccc(C)c(C)c1)c1ccccn1 | 0.3 | 0.1 | 2.1 | – | –
15 | C/C(=N\NC(=S)NCc1cccnc1)c1ccccn1 | 0.1 | 0.3 | 0.6 | – | –
16 | C/C(=N\NC(=S)Nc1ccc(S(=O)(=O)c2ccc(NC(=S)N/N=C(\C)c3ccccn3)cc2)cc1)c1ccccn1 | 0.1 | 0.1 | 0.3 | – | –
17 | CCOC(=O)CNC(=S)N/N=C(\C)c1ccccn1 | 0.1 | 0.1 | 0.3 | – | –
18 | CCOC(=O)c1ccc(NC(=S)N/N=C(\CC)c2ccccn2)cc1 | 0.3 | 0.5 | 0.5 | – | –
19 | CC/C(=N\NC(=S)Nc1ccc(Br)cc1)c1ccccn1 | 0.3 | 0.3 | 0.7 | – | –
20 | C/C(=N\NC(=S)Nc1c(Cl)cccc1Cl)c1ccccn1 | 0.1 | 0.9 | 0.1 | – | –
21 | C/C(=N\NC(=S)NCc1ccc(Cl)cc1Cl)c1ccccn1 | 0.4 | 1 | 2 | – | –
22 | C/C(=N\NC(=S)Nc1ccc(F)cc1)c1ccccn1 | 1.3 | 3.9 | – | 3.7 | 7.7
23 | C/C(=N\NC(=S)Nc1ccccc1Cl)c1ccccn1 | 0.5 | 2.3 | 8.1 | 0.5 | 6.1
24 | C/C(=N\NC(=S)Nc1ccc(Cl)c(Cl)c1)c1ccccn1 | 0.5 | 0.5 | 0.5 | – | –
25 | CCOC(=O)c1ccc(NC(=S)N/N=C(\C)c2ccccn2)cc1 | 0.3 | 0.3 | 0.6 | – | –
26 | C/C(=N\NC(=S)Nc1ccccc1[N+](=O)[O-])c1ccccn1 | 0.1 | 0.9 | 4.5 | 0.1 | 5.7
27 | C/C(=N\NC(=S)NC(c1ccccc1)(c1ccccc1)c1ccccc1)c1ccccn1 | 0.1 | 0.1 | 0.1 | – | –
28 | C/C(=N\NC(=S)NCc1ccccc1Cl)c1ccccn1 | 0.3 | 0.3 | 1.9 | – | –
29 | C/C(=N\NC(=S)Nc1ccncc1)c1ccccn1 | 0.1 | 0.3 | 0.9 | – | –
30 | CC/C(=N\NC(=S)NC(c1ccccc1)(c1ccccc1)c1ccccc1)c1ccccn1 | 0.1 | 0.1 | 0.3 | – | –
